Data on 17 compounds can be found in patent US5409947A, “Cycloheptimidazole derivatives, method of manufacturing the same and therapeutic agents containing these compounds” (Kotobuki Seiyaku Co., Ltd., priority 1992, dated 1995).

Counter-ions that a name gives are not always drawn.

As a reminder, the pA2 is the negative logarithm of the molar antagonist concentration that doubles the agonist concentration needed for the same response. A lower pA2 goes with lower antagonist potency.

One experiment addresses T1, angiotensin II receptor (Oryctolagus cuniculus, UniProt P34976).
T1 construct: Rabbit aorta thoracic is isolated; from tissue; host or cells: isolated rabbit thoracic aorta
T1 sequence (P34976 1-359): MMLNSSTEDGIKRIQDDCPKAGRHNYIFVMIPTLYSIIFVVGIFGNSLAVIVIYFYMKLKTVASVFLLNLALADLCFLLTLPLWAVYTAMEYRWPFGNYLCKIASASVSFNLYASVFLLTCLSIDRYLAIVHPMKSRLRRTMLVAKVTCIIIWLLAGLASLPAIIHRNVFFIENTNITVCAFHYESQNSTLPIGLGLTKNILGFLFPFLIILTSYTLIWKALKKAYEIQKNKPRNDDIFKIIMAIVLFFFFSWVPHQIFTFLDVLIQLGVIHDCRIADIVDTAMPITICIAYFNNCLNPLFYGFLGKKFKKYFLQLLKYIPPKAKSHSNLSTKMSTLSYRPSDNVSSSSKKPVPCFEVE
In words: Angiotensin II receptor antagonistic activity: inhibition of angiotensin II-induced contraction of isolated rabbit thoracic aorta. Particulars: isolated rabbit thoracic aorta contracted by angiotensin II; from dose-response curve (Schild). Format: cell-based. The source says: Angiotensin II receptor antagonistic activity experiments are carded out according to P. C. Wong et al. (Hypertension. 15, 823 (1990)).
Rabbit aorta thoracic is isolated, contracted by angiotensin II. The inhibition of contraction by the compound (1) is expressed as pA2 from dose-response curve (Schild, Brit. J. Pharmacol. 14, 48 (1959)).
Compound `Cc1nc2ccccc(=O)c2n1Cc1ccc(-c2ccccc2-c2nn[nH]n2)cc1` [Compound 1, 5-[2-(4-(2-Methyl-8-oxo-1(8H)-cycloheptimidazolyl)methylbiphenylyl)]tetrazole] registered a pA2 of 7.95.

Still in this experiment, the particulars now being: isolated rabbit thoracic aorta contracted by angiotensin II; from dose-response curve (Schild); read-out: pA2 (converted).
`CCCCc1nc2c(n1Cc1ccc(-c3ccccc3-c3nn[nH]n3)cc1)C(=O)CCCC2` [18 - K salt]: the Kb was 0.316 nM.

For the compound `CCc1nc2ccccc(=O)c2n1Cc1ccc(-c2ccccc2-c2nn[nH]n2)cc1` [Compound 2, 5-[2-(4-(2-Ethyl-8-oxo-1(8H)-cycloheptimidazolyl)methylbiphenylyl)]tetrazole], the Kb is 2 nM.

`CCCc1nc2ccccc(=O)c2n1Cc1ccc(-c2ccccc2-c2nn[nH]n2)cc1` [Compound 3, 5-[2-(4-(2-Propyl-8-oxo-1(8H)-cycloheptimidazolyl)methylbiphenylyl)]tetrazole]: the Kb was 0.331 nM.

Turning to `CCCCc1nc2ccccc(=O)c2n1Cc1ccc(-c2ccccc2-c2nn[nH]n2)cc1` [Compound 4, 5-[2-(4-(2-Butyl-8-oxo-1(8H )-cycloheptimidazolyl)methylbiphenylyl)]tetrazole], the Kb is 0.501 nM.

In the case of `CC(C)c1nc2ccccc(=O)c2n1Cc1ccc(-c2ccccc2-c2nn[nH]n2)cc1` [Compound 9, 5-[2-(4-(2-Isopropyl-8-oxo-1(8H)-cycloheptimidazolyl)methylbiphenylyl)]tetrazole], the Kb was 7.59 nM.

Turning to `CCCCc1nc2c(n1Cc1ccc(-c3ccccc3-c3nn[nH]n3)cc1)CCCCC2` [Compound 11, 5-[2-(4-(2-Butyl-1,4,5,6,7,8-hexahydro-1-cycloheptimidazolyl)methylbiphenylyl)]tetrazole], the Kb was 20 nM.

As to `Cc1nc2c(n1Cc1ccc(-c3ccccc3-c3nn[nH]n3)cc1)C(=O)CCCC2` [Compound 15, 5-[2-(4-(2-Methyl-8-oxo-5,6,7,8-tetrahydro-1-cycloheptimidazolyl)methylbiphenylyl)]tetrazole], the Kb was 5.01 nM.

`CCc1nc2c(n1Cc1ccc(-c3ccccc3-c3nn[nH]n3)cc1)C(=O)CCCC2` [Compound 16, 5-[2-(4-(2-Ethyl-8-oxo-5,6,7,8-tetrahydro-1-cycloheptimidazolyl)methylbiphenylyl)]tetrazole]: the Kb is 1 nM.

Turning to `CCCc1nc2c(n1Cc1ccc(-c3ccccc3-c3nnn[nH]3)cc1)C(=O)CCCC2` [Compound 17, 5-[2-(4-(2-Propyl-8-oxo-5,6,7,8-tetrahydro-1-cycloheptimidazolyl)methylbiphenylyl)]tetrazole], the Kb was 0.126 nM.

For the compound `CCCCc1nc2c(n1Cc1ccc(-c3ccccc3-c3nn[nH]n3)cc1)C(=O)CCCC2` [Compound 18, 5-[2-(4-(2-Butyl-8-oxo-5,6,7,8-tetrahydro-1-cycloheptimidazolyl)methylbiphenylyl)]tetrazole], the Kb is 0.501 nM.

Regarding `CCCCCc1nc2c(n1Cc1ccc(-c3ccccc3-c3nn[nH]n3)cc1)C(=O)CCCC2` [Compound 19, 5-[2-(4-(2-Pentyl-8-oxo-5,6,7,8-tetrahydro-1-cycloheptimidazolyl)methylbiphenylyl)]tetrazole], the Kb was 0.398 nM.

Regarding `CCCCc1nc2c(n1Cc1ccc(-c3ccccc3-c3nn[nH]n3)cc1)CCCCC2=O` [Compound 20, 5-[2-(4-(2-Butyl-4-oxo-5,6,7,8-tetrahydro-1-cycloheptimidazolyl)methylbiphenylyl)]tetrazole], the Kb was 63.1 nM.

As for `CC(C)c1nc2c(n1Cc1ccc(-c3ccccc3-c3nn[nH]n3)cc1)C(=O)CCCC2` [Compound 24], the Kb was 1.78 nM.

Turning to `CC(C)Cc1nc2c(n1Cc1ccc(-c3ccccc3-c3nn[nH]n3)cc1)C(=O)CCCC2` [Compound 25], the Kb is 0.851 nM.

As for `CCCCc1nc2c(n1Cc1ccc(-c3ccccc3-c3nn[nH]n3)cc1)C(O)CCCC2` (centres unmarked) [Compound 26, 5-[2-(4-(2-Butyl-8-hydroxy-1,4,5,6,7,8-hexahydro-1-cycloheptimidazolyl)methylbiphenylyl)]tetrazole], the Kb was 9.77 nM.

`CCCCc1nc2c(n1Cc1ccc(-c3ccccc3-c3nn[nH]n3)cc1)CCCCC2O` (centres unmarked) [Compound 27, 5-[2-(4-(2-Butyl-4-hydroxy-1,4,5,6,7,8-hexahydro-1-cycloheptimidazolyl)methylbiphenylyl)]tetrazole]: the Kb was 63.1 nM.
